According to patent US6914045B2, “Glycopeptide antibiotics” (Wyeth Holdings Corporation, priority 2001, dated 2005):
Values after ≈ are worked out from the molar mass of the structure shown.

Columns and labels:
Test in all cases: in vitro antibacterial evaluation, MIC by broth dilution
Type in all cases: cell-based
Escherichia coli = system: Escherichia coli
Outline: (§1)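 Step 1: dilute antibiotic across 64-0.06 μg/mL in Muller-Hinton II […]. Step 2: inoculate at 5×10^5 CFU/mL.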

Staphylococcus sp. = settings: broth dilution, 18 hours at 35° C.; for MIC Staphylococcus aureus (GC 1131): strain GC 1131
Outline: as §1

Streptococcus sp. = settings: broth dilution, 18 hours at 35° C.; for MIC Streptococcus pneumoniae (ATCC 6301): strain ATCC 6301; for MIC Streptococcus pneumoniae (GC 1894): strain GC 1894; for MIC Streptococcus pyogenes (GC 4563): strain GC 4563; for MIC Streptococcus agalactiae (GC 4564): strain GC 4564; for MIC Streptococcus pneumoniae (GC 4565): strain GC 4565
Outline: as §1

Enterococcus sp. = settings: broth dilution, 18 hours at 35° C.; for MIC Enterococcus faecalis (ATCC 29212): strain ATCC 29212; for MIC Enterococcus faecalis (GC 2242): strain GC 2242; for MIC Enterococcus faecium (GC 2243): strain GC 2243; for MIC Enterococcus faecalis (GC 2691): strain GC 2691; for MIC Enterococcus faecalis (GC 3059): strain GC 3059; for MIC Enterococcus faecalis (GC 4552): strain GC 4552; for MIC Enterococcus faecalis (GC 4553): strain GC 4553; for MIC Enterococcus faecalis (GC 4554): strain GC 4554; for MIC Enterococcus faecium (GC 4556): strain GC 4556; for MIC Enterococcus faecium (GC 4557): strain GC 4557; for MIC Enterococcus avium (GC 4558): strain GC 4558; for MIC Enterococcus faecalis (GC 6189): strain GC 6189
Outline: as §1

## CC(c1ccccc1)C1NC(=O)CNC(=O)C(CO)NC(=O)C(C(O)C2CNC(=N)N2C2OC(CO)C(O)C(O)C2O)NC(=O)C(C(O)C2CNC(=N)N2)NC(=O)C(Cc2ccc(OC3OC(CO)C(OC4OC5COC(c6ccc(-c7ccsc7)cc6)OC5C(O)C4O)C(O)C3O)cc2)NC1=O (stereo not drawn) [Example 164]
Escherichia coli; strain ATCC 25922, 18 hours at 35° C.
  MIC Escherichia coli (ATCC 25922): >64 µg/mL
Escherichia coli; strain GC 4559, 18 hours at 35° C.
  MIC Escherichia coli (GC 4559): 64 µg/mL (≈ 43.7 µM)
Escherichia coli; strain GC 4560, 18 hours at 35° C.
  MIC Escherichia coli (GC 4560): 4 µg/mL (≈ 2.73 µM)
Staphylococcus sp.; inoculum 5×10^5 CFU/mL
  MIC Staphylococcus aureus (GC 1131): 4 µg/mL (≈ 2.73 µM)
Staphylococcus sp.; strain ATCC 29213
  MIC Staphylococcus aureus (ATCC 29213): 8 µg/mL (≈ 5.46 µM)
Staphylococcus sp.
  MIC Staphylococcus aureus (GC 1131): 4 µg/mL (≈ 2.73 µM)
Staphylococcus sp.; strain GC 3051
  MIC Staphylococcus aureus (GC 3051): 16 µg/mL (≈ 10.9 µM)
Staphylococcus sp.; strain GC 3053
  MIC Staphylococcus aureus (GC 3053): 8 µg/mL (≈ 5.46 µM)
Staphylococcus sp.; strain GC 4541
  MIC Staphylococcus aureus (GC 4541): 8 µg/mL (≈ 5.46 µM)
Staphylococcus sp.; strain GC 4542
  MIC Staphylococcus aureus (GC 4542): 16 µg/mL (≈ 10.9 µM)
Staphylococcus sp.; strain GC 4543
  MIC Staphylococcus aureus-SMITH (GC 4543): 4 µg/mL (≈ 2.73 µM)
Staphylococcus sp.; strain GC 4544
  MIC Staphylococcus aureus (GC 4544): 8 µg/mL (≈ 5.46 µM)
Staphylococcus sp.; strain GC 4545
  MIC Staphylococcus aureus (GC 4545): 4 µg/mL (≈ 2.73 µM)
Staphylococcus sp.; strain GC 4546
  MIC Staphylococcus haemolyticus (GC 4546): 4 µg/mL (≈ 2.73 µM)
Staphylococcus sp.; strain GC 4547
  MIC Coagulase Negative Staphylococcus (GC 4547): 4 µg/mL (≈ 2.73 µM)
Staphylococcus sp.; strain GC 4548
  MIC Coagulase Negative Staphylococcus (GC 4548): 1 µg/mL (≈ 0.682 µM)
Staphylococcus sp.; strain GC 4549
  MIC Coagulase Negative Staphylococcus (GC 4549): 0.5 µg/mL (≈ 0.341 µM)
Staphylococcus sp.; strain GC 4551
  MIC Coagulase Negative Staphylococcus (GC 4551): 4 µg/mL (≈ 2.73 µM)
Staphylococcus sp.; strain GC 6257
  MIC Coagulase Negative Staphylococcus (GC 6257): 1 µg/mL (≈ 0.682 µM)
Staphylococcus sp.; strain SMITH GC 4543
  MIC Staphylococcus aureus-SMITH (GC 4543): 4 µg/mL (≈ 2.73 µM)
Streptococcus sp.; inoculum 5×10^5 CFU/mL
  MIC Streptococcus pneumoniae (ATCC 6301): <0.06 µg/mL
  MIC Streptococcus pneumoniae (GC 1894): <0.06 µg/mL
  MIC Streptococcus pyogenes (GC 4563): 0.12 µg/mL (≈ 0.0819 µM)
  MIC Streptococcus agalactiae (GC 4564): 0.12 µg/mL (≈ 0.0819 µM)
  MIC Streptococcus pneumoniae (GC 4565): <0.06 µg/mL
Streptococcus sp.
  MIC Streptococcus pneumoniae (ATCC 6301): <0.06 µg/mL
  MIC Streptococcus pneumoniae (GC 1894): <0.06 µg/mL
  MIC Streptococcus pyogenes (GC 4563): 0.12 µg/mL (≈ 0.0819 µM)
  MIC Streptococcus agalactiae (GC 4564): 0.12 µg/mL (≈ 0.0819 µM)
  MIC Streptococcus pneumoniae (GC 4565): <0.06 µg/mL
Enterococcus sp.; inoculum 5×10^5 CFU/mL
  MIC Enterococcus faecalis (ATCC 29212): 8 µg/mL (≈ 5.46 µM)
  MIC Enterococcus faecalis (GC 2242): 4 µg/mL (≈ 2.73 µM)
  MIC Enterococcus faecium (GC 2243): 8 µg/mL (≈ 5.46 µM)
  MIC Enterococcus faecalis (GC 2691): 8 µg/mL (≈ 5.46 µM)
  MIC Enterococcus faecalis (GC 3059): 8 µg/mL (≈ 5.46 µM)
  MIC Enterococcus faecalis (GC 4552): 8 µg/mL (≈ 5.46 µM)
  MIC Enterococcus faecalis (GC 4553): 8 µg/mL (≈ 5.46 µM)
  MIC Enterococcus faecalis (GC 4554): 16 µg/mL (≈ 10.9 µM)
  MIC Enterococcus faecium (GC 4556): 8 µg/mL (≈ 5.46 µM)
  MIC Enterococcus faecium (GC 4557): 4 µg/mL (≈ 2.73 µM)
  MIC Enterococcus avium (GC 4558): 8 µg/mL (≈ 5.46 µM)
  MIC Enterococcus faecalis (GC 6189): 4 µg/mL (≈ 2.73 µM)
Enterococcus sp.
  MIC Enterococcus faecalis (ATCC 29212): 8 µg/mL (≈ 5.46 µM)
  MIC Enterococcus faecalis (GC 2242): 4 µg/mL (≈ 2.73 µM)
  MIC Enterococcus faecium (GC 2243): 8 µg/mL (≈ 5.46 µM)
  MIC Enterococcus faecalis (GC 2691): 8 µg/mL (≈ 5.46 µM)
  MIC Enterococcus faecalis (GC 3059): 8 µg/mL (≈ 5.46 µM)
  MIC Enterococcus faecalis (GC 4552): 8 µg/mL (≈ 5.46 µM)
  MIC Enterococcus faecalis (GC 4553): 8 µg/mL (≈ 5.46 µM)
  MIC Enterococcus faecalis (GC 4554): 16 µg/mL (≈ 10.9 µM)
  MIC Enterococcus faecium (GC 4556): 8 µg/mL (≈ 5.46 µM)
  MIC Enterococcus faecium (GC 4557): 4 µg/mL (≈ 2.73 µM)
  MIC Enterococcus avium (GC 4558): 8 µg/mL (≈ 5.46 µM)
  MIC Enterococcus faecalis (GC 6189): 4 µg/mL (≈ 2.73 µM)
